Where no end group is shown, it is not given here. [ ]: non-standard residue; d: D form. The star is where a group is joined. FITC = O=C1OC2(c3ccc(O)cc3Oc3cc(O)ccc32)c2ccc(NC(=S)*)cc21; pS = N[C@@H](COP(=O)(O)O)C(=O)O; Ahx = NCCCCCC(=O)O
Tests used:
[1] = system: purified recombinant PPTR-2; assay: Fluorescence polarisation, LxxIxE motif-containing FITC-labelled synthetic peptide with purified recombinant PPTR-2; assay type: binding, C. elegans; conditions: FITC-labelled peptide 0.5–1 µM, increasing PPTR-2 (1:2 serial dilution), FP buffer 50 mM NaP pH 7.5, 150 mM NaCl, 0.5 mM TCEP, 30 min, PheraStar FS, technical triplicates, representative experiment; for PPTR-2 interaction (binding) assessed using fluorescence polarisation: Figure 4C
Protocol: Figure 4. B56α^PPTR-1 and B56γ^PPTR-2 are targeted through a LxxIxE motif in BUB-1. (A) C. elegans BUB-1 LxxIxE SLiM is shown aligned with BubR1 and Repoman short linear motifs (SLiMs). The only change within the LxxIxE sequence itself is the presence of a valine instead of isoleucine, which still fits within the consensus ([Wang et al., 2016]). The alignment was performed using Clustal Omega and visualised with Jalview ([Waterhouse et al., 2009]). (B) Disorder prediction of full-length BUB-1 was done using IUPRED2A ([Erdős and Dosztányi, 2020]). All prevuously characterised BUB-1 domains fall within ordered regions < 0.5. The putative SLiM is in a disordered region (IUPRED score ~0.8). (C) PPTR-2 interaction with a LxxIxE motif-containing synthetic peptide was assessed using fluorescence polarisation. Increasing amounts of purified recombinant PPTR-2 were incubated with FITC-labelled wild-type or L282A,V285A mutant peptide. […] (D) Schematic showing the LxxIxE motif in BUB-1 and the BUB-1^L282A,V285A mutant. […] (F) PPTR-1::GFP levels were measured in wild-type and BUB-1^L282A,V285A oocytes throughout meiosis I and the mean ± s.e.m is shown in the graph. […] (H) Midbivalent/central spindle PPTR-2::GFP levels were measured in wild-type and BUB-1^L282A,V285A oocytes throughout meiosis I, and the mean ± s.e.m is shown in the graph. […] (J) Representative, spindle-wide (20 pixels) line profiles are shown for wild-type (top) and BUB-1^L282A,V285A mutant (bottom) measured in prometaphase I (40 s before metaphase I). […] (K) The angle of bivalents 80 s before segregation in meiosis I relative to the average angle of the spindle was measured in wild-type and in BUB-1^L282A,V285A oocytes. […] N represents number of oocytes and n number of bivalents measured. p value shown in the figure was obtained using a Mann–Whitney test. (L) Distance of bivalents 80 s before segregation in meiosis I relative to the centre of the spindle was measured in wild-type and BUB-1^L282A,V285A oocytes. […]

[2] = system: phospho Ser 283-specific BUB-1 antibody; assay: Peptide competition of anti-phospho Ser 283 BUB-1 antibody in immunofluorescence; conditions: antibody dilutions 1:1,000 and 1:10,000 incubated with 1 µM and 10 µM peptide; fixed oocytes
Protocol: The antibody was generated by Moravian Biotec by immunising rabbits with the following peptide: RRRHL(pS)PVSEKTC. Serum was adsorbed with a non-phosphorylated peptide (RRRHLSPVSEKTC) followed by affinity purification with the antigenic, phosphorylated peptide. Different fractions were tested in immunofluorescence by incubating different dilutions (1:1,000 and 1:10,000) with 1 µM and 10 µM of either non-phosphorylated or phosphorylated peptide.
Worms were placed on 4 µl of M9 worm buffer in a poly-D-lysine (Sigma, P1024)-coated slide, and a […] coverslip was gently laid on top. Once the worms extruded the embryos, slides were placed on a metal block on dry ice for >10 min. The coverslip was then flicked off with a scalpel blade, and the samples were fixed in methanol at […] for 30 min. After blocking in phosphate-buffered saline (PBS) buffer plus 3% bovine serum albumin and 0.1% Triton X-100 (AbDil), samples were incubated overnight at 4°C with anti-BUB-1 ([Desai et al., 2003]) and anti-tubulin (1/400, clone DM1α, Sigma–Aldrich) in AbDil. After three washes with PBS plus 0.1% Tween, secondary antibodies were added at 1/1000 (goat anti-mouse and goat anti-rabbit conjugated to Alexa Fluor 488, Alexa Fluor 594, Thermo Scientific). […]

Substance: FITC-Ahx-NPRRRHLphSPVSEKTVDDEEE [pBUB-1, FITC-labelled BUB-1 LxxIxE peptide phosphorylated at serine 283]
- relative affinity for recombinant B56γ^PPTR-2, phosphorylated versus non-phosphorylated peptide ([1]; Figure 5F): higher affinity than non-phosphorylated LxxIxE peptide

Substance: RRRHLSPVSEKTC
- competition of antibody signal in immunofluorescence [2]: Only the phosphorylated peptide compited out the signal

Substance: RRRHL[pS]PVSEKTC
- competition of antibody signal in immunofluorescence [2]: Only the phosphorylated peptide compited out the signal

Substance: {FITC-Ahx}-NPRRRHASPASEKTVDDEEE [LAVA, FITC-labelled L282A,V285A mutant BUB-1 peptide]
- PPTR-2 interaction (binding) assessed using fluorescence polarisation [1]: this binding is abolished

Substance: {FITC-Ahx}-NPRRRHLSPVSEKTVDDEEE [BUB-1, FITC-labelled wild-type BUB-1 LxxIxE motif-containing synthetic peptide]
- PPTR-2 interaction (binding) assessed using fluorescence polarisation [1]: binds to purified recombinant PPTR-2

Source: publication PMC7787666, “BUB-1 targets PP2A:B56 to regulate chromosome congression during meiosis I in C. elegans oocytes” (eLife, 2020)
